From US7875621B2, “Substituted 2-alkyl quinazolinone derivatives as PARP inhibitors” (Janssen Pharmaceutica NV, priority 2004, dated 2011)

Tests used:
PARP-1 enzyme [1] = target: T1, PARP-1 enzyme (Homo sapiens, UniProt P09874); assay: In vitro filtration assay for PARP-1 inhibitory activity; format: biochemical
Method: In Vitro Filtration Assay for PARP-1 Inhibitory Activity
Compounds of the present invention were tested in an in vitro filtration assay assessing PARP-1 activity (triggered in the presence of nicked DNA) by means of its histone poly(ADP-ribosyl)ation activity using [^32P]-NAD as ADP-ribosyl donor. The radioactive ribosylated histones were precipitated by trichloroacetic acid (TCA) in 96-well filterplates and the incorporated [^32P] measured using a scintillation counter
A mixture of histones (stock solution: 5 mg/ml in H2O), NAD^+ (stock solution: 100 mM in H2O), and [^32P]-NAD^+ in incubation buffer (50 mM Tris/HCl, pH 8; 0.2 mM DTT; 4 mM MgCl2) was made. A mixture of the PARP-1 enzyme (5-10 μg/ml) and nicked DNA was also made. The nicked DNA was prepared as described in the in vitro SPA for PARP-1 inhibitory activity. […] of the PARP-1 enzyme/DNA mixture together with 1 μl of compound in DMSO and 25 μl of histones-NAD^+/[^32P]-NAD^+ mixture was added per well of a 96-well filterplate (0.45 μm, supplier Millipore). The final concentrations in the incubation mixture were 2 μg/ml for the histones, 0.1 mM for the NAD^+, […] (0.5 μC) for the [^32P]-NAD^+ and 2 μg/ml for the nicked DNA. Plates were incubated for 15 min. at room temperature and the reaction was terminated by the addition of 10 μl ice cold 100% TCA followed by the addition of 10 μl ice-cold BSA solution (1% in H2O). The protein fraction was allowed to precipitate for 10 min. at 4° C. and plates were vacuum filtered. The plates were subsequently washed with, for each well, 1 ml of 10% ice cold TCA, 1 ml of 5% ice cold TCA and 1 ml of 5% TCA at room temperature. Finally 100 μl of scintillation solution (Microscint 40, Packard) was added to each well and the plates were transferred to a TopCountNXT™ (supplier: Packard) for scintillation counting and values were expressed as counts per minute (cpm). For each experiment, controls (containing PARP-1 enzyme and DMSO without compound), a blank incubation (containing DMSO but no PARP-1 enzyme or compound) and samples (containing PARP-1 enzyme and compound dissolved in DMSO) were run in parallel. All compounds tested were dissolved and eventually further diluted in DMSO. In first instance, compounds were tested at a concentration of 10^−5M. […] In each test, the blank value was subtracted from both the control and the sample values. The control sample represented maximal PARP-1 enzyme activity. For each sample, the amount of cpm was expressed as a percentage of the mean cpm value of the controls. When appropriate, IC50-values (concentration of the drug, needed to reduce the PARP-1 enzyme activity to 50% of the control) were computed using linear interpolation between the experimental points just above and below the 50% level. Herein the effects of test compounds are expressed as pIC50 (the negative log value of the IC50-value). As a reference compound, 4-amino-1,8-naphthalimide was included to validate the filtration assay.

PARP-1 enzyme [2] = target: T1, PARP-1 enzyme; assay: In vitro scintillation proximity assay (SPA) for PARP-1 inhibitory activity; format: biochemical
Method: In Vitro Scintillation Proximity Assay (SPA) for PARP-1 Inhibitory Activity
Compounds of the present invention were tested in an in vitro assay based on SPA technology (proprietary to Amersham Pharmacia Biotech).
In principle, the assay relies upon the well established SPA technology for the detection of poly(ADP-ribosyl)ation of biotinylated target proteins, i.e histones. This ribosylation is induced using nicked DNA activated PARP-1 enzyme and [^3H]-nicotinamide adenine dinucleotide ([^3H]-NAD^+) as ADP-ribosyl donor.
As inducer of PARP-1 enzyme activity, nicked DNA was prepared. For this, 25 mg of DNA (supplier: Sigma) was dissolved in 25 ml DNAse buffer (10 mM Tris-HCl, pH 7.4; 0.5 mg/ml Bovine Serum Albumine (BSA); 5 mM MgCl2.6H2O and 1 mM KCl) to which 50 μl DNAse solution (1 mg/ml in 0.15 M NaCl) was added. After an incubation of 90 min. at 37° C., the reaction was terminated by adding 1.45 g NaCl, followed by a further incubation at 58° C. for 15 min. The reaction mixture was cooled on ice and dialysed at 4° C. for respectively 1.5 and 2 hours against 1.5 l of 0.2 M KCl, and twice against 1.5 l of 0.01 M KCl for 1.5 and 2 h respectively. The mixture was aliquoted and stored at −20° C. Histones (1 mg/ml, type II-A, supplier: Sigma) were biotinylated using the biotinylation kit of Amersham and stored aliquoted at −20° C. A stock solution of 100 mg/ml SPA poly(vinyl toluene) (PVT) beads (supplier: Amersham) was made in PBS. A stock solution of [^3H]-NAD^+ was made by adding 120 μl of [^3H]-NAD^+ (0.1 mCi/ml, supplier: NEN) to 6 ml incubation buffer (50 mM Tris/HCl, pH 8; 0.2 mM DTT; 4 mM MgCl2). A solution of 4 mM NAD^+ (supplier: Roche) was made in incubation buffer (from a 100 mM stock solution in water stored at −20° C.). The PARP-1 enzyme was produced using art known techniques, i.e. cloning and expression of the protein starting from human liver cDNA. Information concerning the used protein sequence of the PARP-1 enzyme including literature references can be found in the Swiss-Prot database under primary accession number P09874. Biotinylated histones and PVT-SPA beads were mixed and pre-incubated for 30 min. at room temperature. PARP-1 enzyme (concentration was lot dependent) was mixed with the nicked DNA and the mixture was pre-incubated for 30 min. at 4° C. Equal parts of this histones/PVT-SPA beads solution and PARP-1 enzyme/DNA solution were mixed and 75 μl of this mixture together with 1 μl of compound in DMSO and 25 μl of [^3H]-NAD^+ was added per well into a 96-well microtiterplate. The final concentrations in the incubation mixture were 2 μg/ml for the biotinylated histones, 2 mg/ml for the PVT-SPA beads, 2 μg/ml for the nicked DNA and between 5-10 μg/ml for the PARP-1 enzyme. After incubation of the mixture for 15 min. at room temperature, the reaction was terminated by adding 100 μl of 4 mM NAD in incubation buffer (final concentration 2 mM) and plates were mixed.
The beads were allowed to sediment for at least 15 min. and plates transferred to a TopCountNXT™ (Packard) for scintillation counting, values were expressed as counts per minute (cpm). For each experiment, controls (containing PARP-1 enzyme and DMSO without compound), a blank incubation (containing DMSO but no PARP-1 enzyme or compound) and samples (containing PARP-1 enzyme and compound dissolved in DMSO) were run in parallel. All compounds tested were dissolved and eventually further diluted in DMSO. […] In each test, the blank value was subtracted from both the control and the sample values. The control sample represented maximal PARP-1 enzyme activity. For each sample, the amount of cpm was expressed as a percentage of the mean cpm value of the controls. When appropriate, IC50-values (concentration of the drug, needed to reduce the PARP-1 enzyme activity to 50% of the control) were computed using linear interpolation between the experimental points just above and below the 50% level. […]

[3] = [32P]-NAD, nicked DNA, histones, read-out: in vitro filter assay PARP-1 pIC50 (converted)
[4] = [3H]-NAD+, nicked DNA, biotinylated histones, read-out: in vitro SPA assay PARP-1 pIC50 (converted)

T1 sequence (P09874 whole entry): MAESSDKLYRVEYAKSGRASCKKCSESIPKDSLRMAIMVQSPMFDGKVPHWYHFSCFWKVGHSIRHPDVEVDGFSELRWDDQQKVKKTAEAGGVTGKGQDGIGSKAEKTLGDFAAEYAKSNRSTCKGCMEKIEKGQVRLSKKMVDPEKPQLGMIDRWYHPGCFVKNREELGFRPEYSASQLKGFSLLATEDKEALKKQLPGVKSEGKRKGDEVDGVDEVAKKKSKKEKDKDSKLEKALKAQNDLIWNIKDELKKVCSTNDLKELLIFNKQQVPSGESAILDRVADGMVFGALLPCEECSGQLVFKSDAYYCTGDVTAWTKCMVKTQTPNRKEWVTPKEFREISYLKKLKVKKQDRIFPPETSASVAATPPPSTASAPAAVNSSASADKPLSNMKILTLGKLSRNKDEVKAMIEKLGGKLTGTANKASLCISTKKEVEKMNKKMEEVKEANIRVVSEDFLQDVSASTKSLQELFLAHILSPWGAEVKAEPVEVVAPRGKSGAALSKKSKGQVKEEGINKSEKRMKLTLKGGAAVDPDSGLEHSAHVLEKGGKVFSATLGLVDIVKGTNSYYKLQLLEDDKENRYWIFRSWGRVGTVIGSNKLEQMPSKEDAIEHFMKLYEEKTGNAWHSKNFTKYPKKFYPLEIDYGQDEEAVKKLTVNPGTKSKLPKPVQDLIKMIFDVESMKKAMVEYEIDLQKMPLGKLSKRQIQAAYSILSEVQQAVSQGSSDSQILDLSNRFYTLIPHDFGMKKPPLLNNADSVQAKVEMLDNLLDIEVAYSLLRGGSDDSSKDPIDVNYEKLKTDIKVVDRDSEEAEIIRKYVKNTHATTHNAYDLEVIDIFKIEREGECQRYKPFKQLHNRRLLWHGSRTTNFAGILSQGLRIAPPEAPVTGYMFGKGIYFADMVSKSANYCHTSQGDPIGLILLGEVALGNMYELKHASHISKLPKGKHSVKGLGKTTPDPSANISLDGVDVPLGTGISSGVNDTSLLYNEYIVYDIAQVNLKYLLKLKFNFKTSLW

SMILES | IC50 (PARP-1 enzyme [1]; [3]) | IC50 (PARP-1 enzyme [2]; [4]) | IC50 (PARP-1 enzyme [1]) | IC50 (PARP-1 enzyme [2])
O=C1NC(CCN2CCC3(CC2)C(=O)NCN3c2ccccc2)Nc2ccccc21 (stereo not drawn) [Compound 6] | 2140 nM | 178 nM | – | –
NC(=O)C1(c2ccccc2)CCN(CCCc2nc3ccccc3c(=O)[nH]2)CC1 [Compound 4] | 76.7 nM | 20 nM | – | –
NC(=O)C1(N2CCOCC2)CCN(CCCc2nc3ccccc3c(=O)[nH]2)CC1 [Compound 11] | 1140 nM | 188 nM | – | –
O=C1NC(CCCN2CCC(n3c(=O)[nH]c4ccccc43)CC2)Nc2ccccc21 (stereo not drawn) [Compound 7] | 4160 nM | 585 nM | – | –
O=C(CC1CCN(CCc2nc3ccccc3c(=O)[nH]2)CC1)c1ccc(F)cc1 [Compound 3] | 4260 nM | 560 nM | – | –
O=C1NC(CCN2CCC(n3c(=O)[nH]c4ccccc43)CC2)Nc2ccccc21 (stereo not drawn) [Compound 13] | – | – | 4660 nM | 318 nM
O=C(NC1CCN(CCCC2NC(=O)c3ccccc3N2)CC1)c1ccccc1 (stereo not drawn) [Compound 8] | 1570 nM | 236 nM | – | –
O=C(c1ccc(F)cc1)C1CCN(CCc2nc3ccccc3c(=O)[nH]2)CC1 [Compound 9] | 5710 nM | 611 nM | – | –
O=C1NCN(c2ccccc2)C12CCN(CCCc1nc3ccccc3c(=O)[nH]1)CC2 [Compound 2] | 4980 nM | 385 nM | – | –
O=C(c1ccc(F)cc1)C1CCN(CCCc2nc3ccccc3c(=O)[nH]2)CC1 [Compound 14] | 546 nM | 58.6 nM | – | –
O=C(NC1CCN(CCCc2nc3ccccc3c(=O)[nH]2)CC1)c1ccccc1 [Compound 12] | 673 nM | 117 nM | – | –
NC(=O)C1(c2ccccc2)CCN(CCCC2NC(=O)c3ccccc3N2)CC1 (stereo not drawn) [Compound 5] | 300 nM | 22.9 nM | – | –
